# In patent US20250388605A1, “HETEROBIFUNCTIONAL COMPOUNDS AND METHODS OF TREATING DISEASE” (Halda Therapeutics OpCo, Inc., priority 2022, published 2025):
# Experiments:
# [1] = tested on: T-Rex 293 cell line SC3 cells having increased expression of androgen receptor protein due to exposure to doxycycline; test: Cellular growth inhibition, T-Rex 293 SC3 cells with doxycycline (increased androgen receptor expression), CellTiter-Glo; format: cell-based; details: T-Rex 293 SC3 cells with 10 ng/mL doxycycline (increased androgen receptor expression), 72 hours, CellTiter-Glo 2.0
# Outline: (§1)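 Growth inhibition is measured in an inducible AR-expressing T-Rex 293 clone, SC3, cultured with or without 10 ng/mL doxycycline in hormone-depleted medium. Test compounds are applied for 72 hours. GI50 values derive from CellTiter-Glo 2.0 signal fitted by four-parameter regression.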
# [2] = tested on: T-Rex 293 cell line SC3 cells lacking increased expression of androgen receptor protein; test: Cellular growth inhibition, T-Rex 293 SC3 cells without doxycycline (no increased androgen receptor expression), CellTiter-Glo; format: cell-based; details: T-Rex 293 SC3 cells not exposed to doxycycline (no increased androgen receptor expression), 72 hours
# Outline: as §1
# T47D cells = test: Cellular Growth Inhibition Assay for T47D Cells (CellTiter-Glo); format: cell-based, human; details: 72 hours
# Outline: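 GI50 values derive from four-parameter regression of CellTiter-Glo 2.0 luminescence, using zero luminescence as baseline. Human breast cancer T47D cells (3000/well; DMEM, 10% FBS, 0.2 units/mL insulin) were exposed for 72 h to compound dilutions at 0.5% DMSO, with dosing starting 24 h after seeding.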
SMILES,GI50 (T47D cells; Homo sapiens) [nM],GI50 (T47D cells) [nM],GI50 [1] [nM],GI50 [2] [nM]
Cn1cc(-c2cc(C(C)(C)O)ccc2Oc2cccc(OCCN3CCN(c4ncc(C(=O)N[C@H]5C(C)(C)[C@H](Oc6ccc(C#N)c(Cl)c6)C5(C)C)cn4)CC3)c2)c2cc[nH]c2c1=O [Compound I-96],500 to 1500,,< 500,< 500
Cn1cc(-c2cc(C(C)(C)O)ccc2Oc2cccc(OCCN3CCN(c4ncc(C(=O)N[C@H]5C(C)(C)[C@H](Oc6ccc(C#N)c(Cl)c6)C5(C)C)cn4)CC3)c2F)c2cc[nH]c2c1=O [Compound I-99],500 to 1500,,< 500,< 500
Cn1cc(-c2cc(N)ccc2Oc2cccc(OCCN3CCN(c4ncc(C(=O)N[C@H]5C(C)(C)[C@H](Oc6ccc(C#N)c(Cl)c6)C5(C)C)cn4)CC3)c2F)c2cc[nH]c2c1=O [Compound I-100],1500 to 3000,,< 500,> 3000
Cn1cc(-c2cc(N)ccc2Oc2cccc(OCCC3CCN(c4ncc(C(=O)N[C@H]5C(C)(C)[C@H](Oc6ccc(C#N)c(Cl)c6)C5(C)C)cn4)CC3)c2)c2cc[nH]c2c1=O [Compound I-101],500 to 1500,,< 500,> 3000
CCS(=O)(=O)Nc1ccc(Oc2cccc(OC3CC(C4CCN(c5ncc(C(=O)N[C@H]6C(C)(C)[C@H](Oc7ccc(C#N)c(Cl)c7)C6(C)C)cn5)CC4)C3)c2)c(-c2cn(C)c(=O)c3[nH]ccc23)c1 (stereo partly drawn) [Compound I-104],,< 500,< 500,500 to 1500
Cn1cc(-c2cc(C(C)(C)O)ccc2Oc2cccc(N3CC(N4CCN(c5ncc(C(=O)N[C@H]6C(C)(C)[C@H](Oc7ccc(C#N)c(Cl)c7)C6(C)C)cn5)CC4)C3)c2)c2cc[nH]c2c1=O [Compound I-105],500 to 1500,,< 500,< 500
CCS(=O)(=O)Nc1ccc(Oc2cccc(OCCOC3CCN(c4ncc(C(=O)N[C@H]5C(C)(C)[C@H](Oc6ccc(C#N)c(Cl)c6)C5(C)C)cn4)CC3)c2)c(-c2cn(C)c(=O)c3c2ccn3C)c1 [Compound I-121],500 to 1500,,< 500,> 3000
CCS(=O)(=O)Nc1ccc(Oc2ccc(OCC3CCN(c4ncc(C(=O)N[C@H]5C(C)(C)[C@H](Oc6ccc(C#N)c(Cl)c6)C5(C)C)cn4)CC3)cc2)c(-c2cn(C)c(=O)c3[nH]ccc23)c1 [Compound I-138],,< 500,< 500,< 500
Cn1cc(-c2cc(C(C)(C)O)ccc2Oc2cccc(OCCC3CCN(c4ncc(C(=O)N[C@H]5C(C)(C)[C@H](Oc6ccc(C#N)c(Cl)c6)C5(C)C)cn4)CC3)c2F)c2cc[nH]c2c1=O [Compound I-142],500 to 1500,,< 500,1500 to 3000
Cn1cc(-c2cc(C(C)(C)O)ccc2Oc2cccc(CCCN3CCN(c4ncc(C(=O)N[C@H]5C(C)(C)[C@H](Oc6ccc(C#N)c(Cl)c6)C5(C)C)cn4)CC3)c2F)c2cc[nH]c2c1=O [Compound I-143],500 to 1500,,< 500,< 500
Cn1cc(-c2cc(C(C)(C)O)ccc2Oc2cccc(CCOC3CCN(c4ncc(C(=O)N[C@H]5C(C)(C)[C@H](Oc6ccc(C#N)c(Cl)c6)C5(C)C)cn4)CC3)c2F)c2cc[nH]c2c1=O [Compound I-147],,< 500,< 500,< 500
Cn1cc(-c2cc(C(C)(C)O)ccc2Oc2cccc(OCCC3CCN(c4ncc(C(=O)N[C@H]5C(C)(C)[C@H](Oc6ccc(C#N)c(Cl)c6)C5(C)C)cn4)CC3)c2)c2cc[nH]c2c1=O [Compound I-156],,500 to 1500,< 500,> 3000
CCS(=O)(=O)Nc1ccc(Oc2cccc(N3CC(CC4CN(c5ncc(C(=O)N[C@H]6C(C)(C)[C@H](Oc7ccc(C#N)c(Cl)c7)C6(C)C)cn5)C4)C3)c2)c(-c2cn(C)c(=O)c3[nH]ccc23)c1 [Compound I-158],,< 500,< 500,> 3000
Cn1cc(-c2cc(C(C)(C)O)ccc2Oc2cccc(N3CC(OC4CCN(c5ncc(C(=O)N[C@H]6C(C)(C)[C@H](Oc7ccc(C#N)c(Cl)c7)C6(C)C)cn5)CC4)C3)c2F)c2cc[nH]c2c1=O [Compound I-190],,500 to 1500,< 500,500 to 1500
Cc1ccc(CCCOC2CCN(c3ncc(C(=O)N[C@H]4C(C)(C)[C@H](Oc5ccc(C#N)c(Cl)c5)C4(C)C)cn3)CC2)cc1Oc1ccc(C(C)(C)O)cc1-c1cn(C)c(=O)c2[nH]ccc12 [Compound I-192],500 to 1500,,< 500,500 to 1500
Cn1cc(-c2cc(C(C)(C)O)ccc2Oc2cccc(CCOC3CCN(c4ncc(C(=O)N[C@H]5C(C)(C)[C@H](Oc6ccc(C#N)c(Cl)c6)C5(C)C)cn4)CC3)c2)c2cc[nH]c2c1=O [Compound I-193],,< 500,< 500,< 500

# More lines, main results first:
GI50 (T47D cells; Homo sapiens) [nM],GI50 (T47D cells) [nM],SMILES,GI50 [1] [nM],GI50 [2] [nM]
500 to 1500,,"Cn1cc(-c2ccccc2Oc2cccc(N3CC(N4CCN(c5ncc(C(=O)N[C@H]6C(C)(C)[C@H](Oc7ccc(C#N)c(Cl)c7)C6(C)C)cn5)CC4)C3)c2)c2cc[nH]c2c1=O [Compound I-90, N-((1r, 3r)-3-(3-chloro-4-cyanophenoxy)-2,2,4,4-tetramethylcyclobutyl)-2-(4-(1-(3-(2-(6-methyl-7-oxo-6,7-dihydro-1H-pyrrolo[2,3-c]pyridin-4-yl)phenoxy)phenyl)azetidin-3-yl)piperazin-1-yl)pyrimidine-5-carboxamide]",< 500,> 3000
500 to 1500,,CN(c1ccc(Oc2cccc(N3CC(N4CCN(c5ncc(C(=O)N[C@H]6C(C)(C)[C@H](Oc7ccc(C#N)c(Cl)c7)C6(C)C)cn5)CC4)C3)c2F)c(-c2cn(C)c(=O)c3[nH]ccc23)c1)S(=O)(=O)C1CC1 [Compound I-91],< 500,> 3000
< 500,,"Cn1cc(-c2cc(C(C)(C)O)ccc2Oc2cccc(N3CC(N4CCN(c5ncc(C(=O)N[C@H]6C(C)(C)[C@H](Oc7ccc(C#N)c(Cl)c7)C6(C)C)cn5)CC4)C3)c2F)c2cc[nH]c2c1=O [Compound I-92, N-((1r, 3r)-3-(3-chloro-4-cyanophenoxy)-2,2,4,4-tetramethylcyclobutyl)-2-(4-(1-(2-fluoro-3-(4-(2-hydroxypropan-2-yl)-2-(6-methyl-7-oxo-6,7-dihydro-1H-pyrrolo[2,3-c]pyridin-4-yl)phenoxy)phenyl)azetidin-3-yl)piperazin-1-yl)pyrimidine-5-carboxamide]",< 500,< 500
500 to 1500,,Cn1cc(-c2cc(N)ccc2Oc2cccc(N3CC(N4CCN(c5ncc(C(=O)N[C@H]6C(C)(C)[C@H](Oc7ccc(C#N)c(Cl)c7)C6(C)C)cn5)CC4)C3)c2F)c2cc[nH]c2c1=O [Compound I-93],< 500,> 3000
500 to 1500,,Cn1cc(-c2ccccc2Oc2cccc(N3CC(N4CCN(c5ncc(C(=O)N[C@H]6C(C)(C)[C@H](Oc7ccc(C#N)c(Cl)c7)C6(C)C)cn5)CC4)C3)c2F)c2cc[nH]c2c1=O [Compound I-94],< 500,> 3000
< 500,,Cn1cc(-c2ccccc2Oc2cccc(OCCN3CCN(c4ncc(C(=O)N[C@H]5C(C)(C)[C@H](Oc6ccc(C#N)c(Cl)c6)C5(C)C)cn4)CC3)c2)c2cc[nH]c2c1=O [Compound I-98],< 500,500 to 1500
< 500,,"CC(C)c1ccc(Oc2cccc(OCCN3CCN(c4ncc(C(=O)NC5C(C)(C)C(Oc6ccc(C#N)c(Cl)c6)C5(C)C)cn4)CC3)c2)c(-c2cn(C)c(=O)c3[nH]ccc23)c1 (stereo not drawn) [Compound I-107, N-[3-(3-chloro-4-cyano-phenoxy)-2,2,4,4-tetramethyl-cyclobutyl]-2-[4-[2-[3-[4-isopropyl-2-(6-methyl-7-oxo-1H-pyrrolo[2,3-c]pyridin-4-yl)phenoxy]phenoxy]ethyl]piperazin-1-yl]pyrimidine-5-carboxamide]",< 500,> 3000
< 500,,Cn1cc(-c2cc(C(C)(C)O)ccc2Oc2cccc(CCCN3CCN(c4ncc(C(=O)N[C@H]5C(C)(C)[C@H](Oc6ccc(C#N)c(Cl)c6)C5(C)C)cn4)CC3)c2)c2cc[nH]c2c1=O [Compound I-110],< 500,< 500
< 500,,CCS(=O)(=O)N(C)c1ccc(Oc2cccc(N3CCN(C4CN(c5ncc(C(=O)N[C@H]6C(C)(C)[C@H](Oc7ccc(C#N)c(Cl)c7)C6(C)C)cn5)C4)CC3)c2)c(-c2cn(C)c(=O)c3[nH]ccc23)c1 [Compound I-118],< 500,> 3000
< 500,,CCS(=O)(=O)Nc1ccc(Oc2cccc(CCN3CC4CN(c5ncc(C(=O)N[C@H]6C(C)(C)[C@H](Oc7ccc(C#N)c(Cl)c7)C6(C)C)cn5)CC4C3)c2)c(-c2cn(C)c(=O)c3[nH]ccc23)c1 (stereo partly drawn) [Compound I-119],< 500,< 500
< 500,,CCS(=O)(=O)Nc1ccc(Oc2cccc(N3CC(N(C)C4CN(c5ncc(C(=O)N[C@H]6C(C)(C)[C@H](Oc7ccc(C#N)c(Cl)c7)C6(C)C)cn5)C4)C3)c2)c(-c2cn(C)c(=O)c3[nH]ccc23)c1 [Compound I-120],< 500,> 3000
< 500,,CCS(=O)(=O)Nc1ccc(Oc2cccc(N3CCN(C4CN(c5ncc(C(=O)N[C@H]6C(C)(C)[C@H](Oc7ccc(C#N)c(Cl)c7)C6(C)C)cn5)C4)CC3)c2)c(-c2cn(C)c(=O)c3[nH]ccc23)c1 [Compound I-126],< 500,> 3000
< 500,,Cn1cc(-c2ccccc2Oc2cccc(OCCOC3CCN(c4ncc(C(=O)N[C@H]5C(C)(C)[C@H](Oc6ccc(C#N)c(Cl)c6)C5(C)C)cn4)CC3)c2)c2ccn(C)c2c1=O [Compound I-137],< 500,< 500
